The first data set in a line: logP by HPLC on reversed phase columns (EEC directive 79/831 Annex V.A8). Type of data set: physicochemical. The settings on record: method [a]: LC-MS at pH 2.7, 0.1% formic acid in water / acetonitrile; amines of formula (III-a), Table 2.
Consider `CC(C)C1Cc2cccc(N)c2C1` (racemic) [Example III-a-1], for which the logP is 2.25[a].

`CC(C)C1Cc2c(N)cccc2C1(C)C` (racemic) [Example III-a-2]: the logP was 2.8[a].

In the case of `CC1Cc2c(N)cccc2C1(C)C` (racemic) [Example III-a-3], the logP is 1.95[a].

As to `CC(C)C1Cc2c(N)cccc2C1C` (centres unmarked) [Example III-a-5], the logP is 2.34[a].

Regarding `Nc1cccc2c1CC(Cc1ccccc1)C2` (centres unmarked) [Example III-a-8], the logP is 2.54[a].

In the case of `CC1Cc2c(N)cccc2C1C` (centres unmarked) [Example III-a-13], the logP was 1.44[a].

On to `CC1c2c(N)cccc2C(C)(C)C1C` (centres unmarked) [Example III-a-14], for which the logP was 2.4[a].

`CCC1Cc2c(N)cccc2C1(C)C` (centres unmarked) [Example III-a-17]: the logP was 2.47[a].

As to `CCC1(CC)Cc2c(N)cccc2C1C` (centres unmarked) [Example III-a-18], the logP is 2.63[a].

Regarding `Nc1cccc2c1CC1(CCCC1)C2` [III-a-4], the logP is 2.1[a].

Take `CCC1Cc2cccc(N)c2C1` (centres unmarked) [III-a-6]: the logP is 1.76[a].

For the compound `CC(C)C1Cc2cccc(N)c2C1C` (centres unmarked) [III-a-9], the logP was 2.9[a].

Regarding `Nc1cccc2c1CC(C1CCCC1)C2` (centres unmarked) [III-a-11], the logP is 2.94[a].

`CON=C1c2cccc(N)c2CC1(C)C` [III-a-12]: the logP was 2.08[a].

The same data set, now with this note: method [a]: LC-MS at pH 2.7, 0.1% formic acid in water / acetonitrile; compounds of formula (I), Table 1.
With `CC(C)c1nn(C)cc1C(=O)Nc1cccc2c1CC(C(C)C)C2(C)C` (racemic) [Example 61], the logP is 4.56[a].

Take `CCc1c(C(=O)Nc2cccc3c2CC(CC)C3(C)C)cnn1C` (racemic) [Example 63]: the logP is 3.83[a].

With `CCCc1nn(C)cc1C(=O)Nc1cccc2c1CC(CC)C2(C)C` (racemic) [Example 64], the logP is 4.2[a].

Consider `CCCc1nn(C)c(F)c1C(=O)Nc1cccc2c1CC(C(C)C)C2(C)C` (racemic) [Example 65], for which the logP was 5.29[a].

In the case of `CCC1Cc2c(NC(=O)c3cn(C)nc3C(C)C)cccc2C1(C)C` (racemic) [Example 67], the logP was 4.18[a].

In the case of `CC1Cc2c(NC(=O)c3cn(C)nc3[N+](=O)[O-])cccc2C1(C)C` (racemic) [Example 76], the logP was 3.67[a].

As for `CC1Cc2c(NC(=O)c3c(C4CC4)nn(C)c3Cl)cccc2C1(C)C` (racemic) [Example 78], the logP is 4.46[a].

Take `CC1Cc2c(NC(=O)c3c(C(F)(F)F)nn(C)c3C(F)F)cccc2C1(C)C` (racemic) [Example 81]: the logP is 4.09[a].

As to `CCc1nn(C)cc1C(=O)Nc1cccc2c1CC(CC)(CC)C2C` (racemic) [Example 82], the logP was 4.06[a].

As to `CC1Cc2c(NC(=O)c3cn(C)nc3C(F)(F)C(F)(F)F)cccc2C1(C)C` (racemic) [Example 85], the logP is 4.21[a].

As to `CCCc1nn(C)c(F)c1C(=O)Nc1cccc2c1CC(C)C2(C)C` (centres unmarked) [Example 19], the logP was 4.39[a].

On to `CCc1c(C(=O)Nc2cccc3c2CC(C(C)C)C3(C)C)cnn1C` (centres unmarked) [Example 46], for which the logP is 4.21[a].

On to `CCCc1nn(C)cc1C(=O)Nc1cccc2c1CC(C(C)C)C2(C)C` (centres unmarked) [Example 47], for which the logP was 4.51[a].

For `CCC1(CC)Cc2c(NC(=O)c3c(C)nn(C)c3C)cccc2C1C` (centres unmarked) [Example 51], the logP is 3.85[a].

In the case of `Cc1nn(C)c(C(F)(F)Cl)c1C(=O)Nc1cccc2c1CC(C(C)C)C2(C)C` (centres unmarked) [Example 53], the logP was 4.86[a].

For the compound `CCC1Cc2c(NC(=O)c3c(C)nn(C)c3C(F)(F)Cl)cccc2C1(C)C` (centres unmarked) [Example 58], the logP is 4.46[a].

`Cc1c(C(=O)Nc2cccc3c2CC(C)C3(C)C)c(C(F)(F)Cl)nn1C` (centres unmarked) [Example 72]: the logP is 3.99[a].

The data set is the same for the next values; noted with them: reversed phase HPLC columns; method [a]: LC-MS at pH 2.7, 0.1% formic acid in water / acetonitrile; amines of formula (III-a), Table 2; read-out: logP.
Take `CC1c2cccc(N)c2CC12CCCC2` (centres unmarked) [Example III-a-7, 1′-methyl-1′,3′-dihydrospiro[cyclopentane-1,2′-inden]-4′-amine]: the chromatographic logP turned out to be 2.39.

The values above are taken from patent publication US9249104B2, “Pyrazole indanyl carboxamides” (BAYER CROPSCIENCE AG, priority 2012, dated 2016).
